A short description of the series: in vitro. The settings on record: human, hek293t cells.
`COc1ccc2[nH]c3c(c2c1)CCCC3NC(=O)CCl` (centres unmarked) [5-G07, 2-chloro-N-(6-methoxy-2,3,4,9-tetrahydro-1H-carbazol-1-yl)acetamide]: the viability at 48 h, 25 µM was found to be 0.129%.
To `O=C(CCl)N1CCOc2c1cccc2C(F)(F)F` [5-G08, 2-chloro-1-[8-(trifluoromethyl)-3,4-dihydro-2H-1,4-benzoxazin-4-yl]ethan-1-one] belongs 0.974%.
For `O=C(CCl)NC1CCC2(CCC1(F)F)OCCO2` (centres unmarked) [5-G09, 2-chloro-N-{9,9-difluoro-1,4-dioxaspiro[4.6]undecan-8-yl}acetamide], the viability at 48 h, 25 µM came out at 5.9%.
To `O=C(CCl)N1CC(S(=O)(=O)Nc2ccccc2)C1` [5-G10, 1-(2-chloroacetyl)-N-phenylazetidine-3-sulfonamide] belongs 1.28%; to `CC(NC(=O)CCl)C(=O)Nc1ccc(Cl)cc1` (centres unmarked) [5-G11, 2-(2-chloroacetamido)-N-(4-chlorophenyl)propanamide], 1.06%.
Regarding `Cc1cc(CN(Cc2cnn(C)c2)C(=O)CCl)ccc1Cl` [5-G12, 2-chloro-N-[(4-chloro-3-methylphenyl)methyl]-N-[(1-methyl-1H-pyrazol-4-yl)methyl]acetamide], the viability at 48 h, 25 µM was -0.0746%.
In the case of `CC(C)c1cccc(C(C)C)c1NC(=O)CCl` [5-G13, N-[2,6-bis(propan-2-yl)phenyl]-2-chloroacetamide], the viability at 48 h, 25 µM was 37.8%.
Consider `Cc1cc(CN(Cc2ccn(C)n2)C(=O)CCl)ccc1F` [5-G14, 2-chloro-N-[(4-fluoro-3-methylphenyl)methyl]-N-[(1-methyl-1H-pyrazol-3-yl)methyl]acetamide], for which the viability at 48 h, 25 µM amounted to 0.658%.
Turning to `O=C(CCl)Nc1nc2c(s1)CCCC2` [5-G15, 2-chloro-N-(4,5,6,7-tetrahydro-1,3-benzothiazol-2-yl)acetamide], the viability at 48 h, 25 µM was 1.2%.
As to `CCn1cc(CN(C(=O)CCl)[C@H]2CC[C@H](C)CC2)cn1` [5-G16, 2-chloro-N-[(1-ethyl-1H-pyrazol-4-yl)methyl]-N-[(1r,4r)-4-methylcyclohexyl]acetamide], the viability at 48 h, 25 µM turned out to be 0.893%.
On to `Cc1c(NC(=O)CCl)c(=O)n(-c2ccccc2)n1C` [5-G17, 2-chloro-N-(1,5-dimethyl-3-oxo-2-phenyl-2,3-dihydro-1H-pyrazol-4-yl)acetamide], for which the viability at 48 h, 25 µM is 42.7%.
With `O=C(CCl)N1CCCCC1c1nc(-c2ccccn2)cs1` (centres unmarked) [5-G18, 2-chloro-1-{2-[4-(pyridin-2-yl)-1,3-thiazol-2-yl]piperidin-1-yl}ethan-1-one], the viability at 48 h, 25 µM came out at 0.612%.
`O=C(CCl)Nc1cc(Cl)ccc1Oc1ccccc1` [5-G19, 2-chloro-N-(5-chloro-2-phenoxyphenyl)acetamide]: the viability at 48 h, 25 µM was 0.676%.
Regarding `O=C(CCl)N1CC(Cc2ccc(F)cc2F)C1` [5-G20, 2-chloro-1-{3-[(2,4-difluorophenyl)methyl]azetidin-1-yl}ethan-1-one], the viability at 48 h, 25 µM came to 0.867%.
To `CC(Cl)C(=O)Nc1ccc(Cl)c(S(=O)(=O)N(C)C)c1` (centres unmarked) [5-G21, 2-chloro-N-[4-chloro-3-(dimethylsulfamoyl)phenyl]propanamide] belongs 78.5%.
Regarding `O=C(CCl)NCC(=O)Nc1nccs1` [5-G22, 2-chloro-N-{[(1,3-thiazol-2-yl)carbamoyl]methyl}acetamide], the viability at 48 h, 25 µM was determined as 3.47%.
Take `CC(Oc1cccc(F)c1F)C(=O)N1CCN(C(=O)CCl)CC1` (centres unmarked) [5-H03, 1-[4-(2-chloroacetyl)piperazin-1-yl]-2-(2,3-difluorophenoxy)propan-1-one]: the viability at 48 h, 25 µM came out at 1.67%.
As for `CC(Cl)C(=O)N1CCc2ccccc21` (centres unmarked) [5-H04, 2-chloro-1-(2,3-dihydro-1H-indol-1-yl)propan-1-one], the viability at 48 h, 25 µM came out at 114%.
On to `CC1=C(c2ccco2)CN(C(=O)CCl)CC1` [5-H05, 2-chloro-1-[5-(furan-2-yl)-4-methyl-1,2,3,6-tetrahydropyridin-1-yl]ethan-1-one], for which the viability at 48 h, 25 µM amounted to 69.1%.
In the case of `CN(C(=O)CCl)C(c1ccccc1)c1ccccc1` [5-H06, 2-chloro-N-(diphenylmethyl)-N-methylacetamide], the viability at 48 h, 25 µM amounted to 0.0655%.
`CC1CSc2ccccc2N(C(=O)CCl)C1` (centres unmarked) [5-H07, 2-chloro-1-(3-methyl-2,3,4,5-tetrahydro-1,5-benzothiazepin-5-yl)ethan-1-one]: the viability at 48 h, 25 µM amounted to 0.825%.
`CCN(Cc1ccc(C#N)cc1F)C(=O)CCl` [5-H08, 2-chloro-N-[(4-cyano-2-fluorophenyl)methyl]-N-ethylacetamide]: the viability at 48 h, 25 µM amounted to 0.591%.
Consider `CC(Cl)C(=O)N1CCOCC1` (centres unmarked) [5-H09, 2-chloro-1-(morpholin-4-yl)propan-1-one], for which the viability at 48 h, 25 µM is 103%.
As for `CC(Cl)C(=O)Nc1ccc2ccccc2c1` (centres unmarked) [5-H10, 2-chloro-N-(naphthalen-2-yl)propanamide], the figure is 90.7%; as for `CCCN(CC1CC1)C(=O)CCl` [5-H11, 2-chloro-N-(cyclopropylmethyl)-N-propylacetamide], 1.45%.
For the molecule `COc1ccc(CCNC(=O)CCl)cc1` [5-H12, 2-chloro-N-[2-(4-methoxyphenyl)ethyl]acetamide], the viability at 48 h, 25 µM came out at 0.726%.
Turning to `COc1ccc(N(C(=O)CCl)C2C=CS(=O)(=O)C2)cc1` (centres unmarked) [5-H14, 2-chloro-N-(1,1-dioxo-2,3-dihydro-1lambda6-thiophen-3-yl)-N-(4-methoxyphenyl)acetamide], the viability at 48 h, 25 µM came out at 1.1%.
For the molecule `O=C(CCl)NC1CCCCCC1` [5-H16, 2-chloro-N-cycloheptylacetamide], the viability at 48 h, 25 µM came to 17.7%.
`Cc1csc(CN2CCN(C(=O)C(C)Cl)CC2)n1` (centres unmarked) [5-H17, 2-chloro-1-{4-[(4-methyl-1,3-thiazol-2-yl)methyl]piperazin-1-yl}propan-1-one]: the viability at 48 h, 25 µM is 87.4%.
Regarding `CC(Cl)C(=O)N1N=C(c2ccc(Cl)cc2)CC1c1ccco1` (centres unmarked) [5-H18, 2-chloro-1-[3-(4-chlorophenyl)-5-(furan-2-yl)-4,5-dihydro-1H-pyrazol-1-yl]propan-1-one], the viability at 48 h, 25 µM turned out to be 78.1%.
Turning to `COc1ccccc1C(NC(=O)C(C)Cl)c1ccco1` (centres unmarked) [5-H19, 2-chloro-N-[(furan-2-yl)(2-methoxyphenyl)methyl]propanamide], the viability at 48 h, 25 µM amounted to 120%.
With `CC(C)(C)N(Cc1ccccc1)C(=O)CCl` [5-H20, N-benzyl-N-tert-butyl-2-chloroacetamide], the viability at 48 h, 25 µM was 1.81%.
As for `CC(=O)N1CCC(N(Cc2cncs2)C(=O)C(C)Cl)CC1` (centres unmarked) [5-H21, N-(1-acetylpiperidin-4-yl)-2-chloro-N-[(1,3-thiazol-5-yl)methyl]propanamide], the viability at 48 h, 25 µM was determined as 119%.
To `CC(Cl)C(=O)Nc1cccc(Cl)c1` (centres unmarked) [5-H22, 2-chloro-N-(3-chlorophenyl)propanamide] belongs 78%.
`CCN(CC)C(=O)c1cccc(NC(=O)CCl)c1` [5-I03, 3-(2-chloroacetamido)-N,N-diethylbenzamide]: the viability at 48 h, 25 µM was found to be 0.175%.
Turning to `O=C(CCl)Nc1cccc(OCc2ccccc2)c1` [5-I04, N-[3-(benzyloxy)phenyl]-2-chloroacetamide], the viability at 48 h, 25 µM stood at 0.885%.
Take `CCOC(=O)C1=C(C)NC(=O)N(C(=O)CCl)C1c1ccccc1` (centres unmarked) [5-I05, ethyl 3-(2-chloroacetyl)-6-methyl-2-oxo-4-phenyl-1,2,3,4-tetrahydropyrimidine-5-carboxylate]: the viability at 48 h, 25 µM worked out at 44.7%.
As for `O=C(CCl)N(Cc1ccccc1)Cc1ccc(F)cc1` [5-I06, N-benzyl-2-chloro-N-[(4-fluorophenyl)methyl]acetamide], the figure is 0.621%.
Take `CC(Cc1c[nH]c2cc(F)c(F)cc12)NC(=O)CCl` (centres unmarked) [5-I07, 2-chloro-N-[1-(5,6-difluoro-1H-indol-3-yl)propan-2-yl]acetamide]: the viability at 48 h, 25 µM stood at 0.657%.
As for `CNC(=O)c1ccn(C2CCCN(C(=O)CCl)C2)n1` (centres unmarked) [5-I08, 1-[1-(2-chloroacetyl)piperidin-3-yl]-N-methyl-1H-pyrazole-3-carboxamide], the figure is 1.61%.
For `Cc1cc(NS(=O)(=O)c2ccc(NC(=O)CCl)cc2)nc(C)n1` [5-I09, 2-chloro-N-{4-[(2,6-dimethylpyrimidin-4-yl)sulfamoyl]phenyl}acetamide], the viability at 48 h, 25 µM was found to be 1.31%.
`CC(c1ccccc1F)N1CCCC(NC(=O)CCl)C1=O` (centres unmarked) [5-I10, 2-chloro-N-{1-[1-(2-fluorophenyl)ethyl]-2-oxopiperidin-3-yl}acetamide]: the viability at 48 h, 25 µM worked out at 80.5%.
As for `Cc1cc(CN(C(=O)CCl)c2cn(C)nn2)ccc1Cl` [5-I12, 2-chloro-N-[(4-chloro-3-methylphenyl)methyl]-N-(1-methyl-1H-1,2,3-triazol-4-yl)acetamide], the figure is 13.7%; as for `CN(Cc1ccc(-c2ccc(Cl)cc2)o1)C(=O)CCl` [5-I13, 2-chloro-N-{[5-(4-chlorophenyl)furan-2-yl]methyl}-N-methylacetamide], 16.8%; as for `O=C(CCl)N(Cc1ccnn1C1CCC1)C1CC=CCC1` (centres unmarked) [5-I14, 2-chloro-N-[(1-cyclobutyl-1H-pyrazol-5-yl)methyl]-N-(cyclohex-3-en-1-yl)acetamide], 0.326%.
`CC(Cl)C(=O)Nc1ccc([N+](=O)[O-])cc1C#N` (centres unmarked) [5-I15, 2-chloro-N-(2-cyano-4-nitrophenyl)propanamide]: the viability at 48 h, 25 µM is 78.6%.
As to `O=C(CCl)NC1CN(S(=O)(=O)c2ccc3c(c2)OCCO3)C1` [5-I16, 2-chloro-N-[1-(2,3-dihydro-1,4-benzodioxine-6-sulfonyl)azetidin-3-yl]acetamide], the viability at 48 h, 25 µM was determined as 2.6%.
As to `Cc1ccc(C2=NN(C(=O)CCl)C(c3cccs3)C2)o1` (centres unmarked) [5-I17, 2-chloro-1-[3-(5-methylfuran-2-yl)-5-(thiophen-2-yl)-4,5-dihydro-1H-pyrazol-1-yl]ethan-1-one], the viability at 48 h, 25 µM worked out at 0.348%.
For the molecule `O=C(CCl)N1CCCCc2ccc([N+](=O)[O-])cc21` [5-I18, 2-chloro-1-(8-nitro-2,3,4,5-tetrahydro-1H-1-benzazepin-1-yl)ethan-1-one], the viability at 48 h, 25 µM was 1.56%.
`CCN(C(=O)C(C)Cl)C1CCCCC1` (centres unmarked) [5-I19, 2-chloro-N-cyclohexyl-N-ethylpropanamide]: the viability at 48 h, 25 µM came out at 134%.

For the origin of these results see article PMC11995724, “Antibiotic target discovery by integrated phenotypic and activity-based profiling of electrophilic fragments” (Cell chemical biology, 2025).
